Source: publication PMC13308190, “Endothelial progenitor cell susceptibility to DNA damaging and DDR-modulating compounds determines endothelial differentiation accuracy” (Stem Cell Research & Therapy, 2026)

Columns and labels:
Format in all cases: cell-based, mouse
[1] = test system: EC d4; assay: EdU incorporation (S-phase activity); conditions: EC d4 48 h
Experimental: S-phase activity of cells was monitored by measuring EdU incorporation using the EdU-Click 488 assay according to the manufacturer’s protocol. Briefly, cells were pulse-treated with 5-ethynyl-2′-deoxyuridine (EdU) for 3 h. Alexa Fluor 488-conjugated reaction cocktail was added (30 min, RT) and nuclei were counterstained with DAPI. The percentage of EdU-positive area/DAPI-positive area was calculated by fluorescence microscopy (Olympus BX43, 20x objective).

[2] = test system: EC d4 (endothelial progenitor cells); assay: RT-qPCR mRNA expression; conditions: for Flk1 mRNA / Nanog mRNA / Oct4 mRNA / Pecam1 mRNA / Tie1 mRNA / VE-cad mRNA: analysed day 6, Fig 1C; for Ccl2 mRNA / Icam-1 mRNA / Vcam-1 mRNA / iNos mRNA / eNos mRNA: Fig 8D; for Gpx4 mRNA / Slc7a11 mRNA: Fig 6F
Experimental: Total RNA was purified using the RNeasy Mini Kit (Qiagen, Hilden, Germany). Reverse transcriptase (RT) reaction was performed with the HighCapacity cDNA Reverse Transcription Kit (Applied Biosystems, Darmstadt, Germany) using 900–2000 ng of RNA. Quantitative RT-qPCR analysis was performed using following conditions: (1) 95 °C–10 min; (2) 45 amplification cycles with 95 °C–15 s, 55 °C–15 s, and 72 °C–17 s; (3) 95 °C–1 min, 55 °C–1 min, 65 °C–5 s. If not stated otherwise, analyses were performed in technical triplicates using pooled samples from two independent experiments (each performed with biological duplicates) by use of a CFX96 cycler (BioRad) and the SensiMix SYBR Kit (Bioline, London, UK). The primers used for mRNA expression analyses are listed in Supplementary Table 1. To ensure the specificity of the amplification product, melting curves were recorded at the end of the run. mRNA expression levels were normalized to β-Actin and Gapdh. Relative mRNA expression in mESC or corresponding untreated controls was set to 1.0. Only changes in gene expression of ≤ 0.5- and ≥ 2-fold were considered as biologically relevant.
To monitor prototypical functions of endothelial cells, the uptake of fluorescent 1,1-dioctadecyl-3,3,3,3-tetra-methylindocarbocyanine-labeled acetylated LDL (Dil-acLDL) was examined. Briefly, cells were incubated with Dil-acLDL (10 µg/ml, 4 h, 37 °C). After fixation (3.7% cold formaldehyde/PBS (15 min, RT) nuclei were counterstained with DAPI. The uptake of DiI-acLDL was analyzed by fluorescence microscopy (Olympus BX43, 20x objective). Additionally, the response of differentiated EC to inflammatory cytokines was measured. After treatment with a pro-inflammatory cytokine mixture (TNFα/IL-1β, 10 ng/mL) for 1 h, mRNA expression of activated EC markers E-selectin, Icam-1, Vcam-1, Ccl2, eNos, iNos was analyzed (RT-qPCR).

[3] = test system: mESC; assay: AlamarBlue cell viability; conditions: Mus musculus
Experimental: (§1) Drug-induced cytotoxicity was monitored by analyzing cell viability using the AlamarBlue assay, which measures the reduction of the non-fluorescent dye resazurin (Sigma [Steinheim, Germany]) to fluorescent resorufin by living (i.e. metabolically active) cells. Fluorescence was measured in quadruplicates (excitation: 535 nm, emission: 590 nm (Tecan infinite 200, Tecan, Männedorf, Switzerland)). Relative cell viability of the untreated control was set to 100%.

[4] = test system: EC d4 (endothelial progenitor cells); assay: AlamarBlue cell viability; conditions: 48 h treatment
Experimental: as §1

[5] = test system: EC d4; assay: VE-cadherin cell-cell junction immunostaining; conditions: EC d4 treated 48 h
[6] = test system: EC d4; assay: ZO1 tight junction immunofluorescence; conditions: EC d4 treated 48 h
[7] = test system: EC d6; assay: Mitochondrial membrane potential (TMRM-MitoTracker Green); conditions: EC d6 treated 24 h
Experimental: Mitochondrial membrane potential (ΔΨm) was analyzed by live-cell imaging using TMRM-MitoTracker Green co-staining. Cells were seeded and differentiated on Poly-D-Lysine-fibronectine-coated live-imaging dishes. For staining, cells were incubated with 200nM MitoTracker Green (Invitrogen) and 50 nM TMRM (Invitrogen) in DMEM (30 min, 37 °C, 5% CO2). After washing with PBS, live-cell microscopy was performed using a spinning disc confocal microscope (PerkinElmer) equipped with a 60x oil-immersion objective (N.A = 1.49) and a Hamamatsu C9100 camera (1000 × 1000 pixel) (excitation (MitoTracker Green): 488 nm, excitation (TMRM): 561 nm). The cells were kept at 37 °C in OptiMEM supplemented with 10 mM HEPES during imaging. The images were obtained at emission wavelength of 527 nm (W55) and 615 nm (W70) for 488 nm and 561 nm excitation, respectively.

[8] = EC d4 + 0.005 µM 48 h, analysed in EC d6
[9] = EC d4 + 0.005 µM 48 h, then + I/T (IL-1β/TNFα 10 ng/ml, 1 h)
[10] = EC d4 + 0.05 µM 48 h, analysed in EC d6
[11] = EC d4 + 0.05 µM 48 h, then + I/T (IL-1β/TNFα 10 ng/ml, 1 h)

## COc1cccc2c1C(=O)c1c(O)c3c(c(O)c1C2=O)C[C@@](O)(C(=O)CO)C[C@@H]3O[C@H]1C[C@H](N)[C@H](O)[C@H](C)O1 [Dox, doxorubicin]
[1]
  S-phase activity (EdU-positive cells): decrease in S-phase activity
[2]; EC d4 + 0.005 µM 48 h
  Flk1 mRNA: 18.23 Fold of mESC
  Nanog mRNA: 0.03 Fold of mESC
  Oct4 mRNA: 0.02 Fold of mESC
  Pecam1 mRNA: 0.78 Fold of mESC
  Tie1 mRNA: 90.91 Fold of mESC
  VE-cad mRNA: 653.73 Fold of mESC
  Gpx4 mRNA: 1.07 Fold of untreated control
  Slc7a11 mRNA: 1.71 Fold of untreated control
[2]; [8]
  Ccl2 mRNA: 2.40 Fold of untreated control
  Icam-1 mRNA: 3.06 Fold of untreated control
  Vcam-1 mRNA: 0.44 Fold of untreated control
  iNos mRNA: 4.75 Fold of untreated control
[2]; [9]
  Ccl2 mRNA: 242.22 Fold of untreated control
  Icam-1 mRNA: 14.94 Fold of untreated control
  Vcam-1 mRNA: 1.13 Fold of untreated control
  eNos mRNA: 157.09 Fold of untreated control
  iNos mRNA: 4.95 Fold of untreated control
[2]; EC d4 + 0.005 µM 48 h, Fig 2D
  Atp7a mRNA: 1.11 Fold of control
  Ctr2 mRNA: 1.25 Fold of control
  Mdr1 mRNA: 1.46 Fold of control
  Mrp1 mRNA: 1.32 Fold of control
  Oct2 mRNA: 0.33 Fold of control
[2]; EC d4 + 0.005 µM 48 h, Fig 7B
  Cdkn1a mRNA: 1.42 Fold of untreated control
  Cdkn2a mRNA: 1.12 Fold of untreated control
  Glb1 mRNA: 0.97 Fold of untreated control
  Il6 mRNA: 0.95 Fold of untreated control
  Il8 mRNA: 1.26 Fold of untreated control
  Tp53 mRNA: 0.98 Fold of untreated control
[2]; EC d4 + 0.05 µM 48 h
  Flk1 mRNA: 26.95 Fold of mESC
  Nanog mRNA: 0.02 Fold of mESC
  Oct4 mRNA: 0.02 Fold of mESC
  Pecam1 mRNA: 1.42 Fold of mESC
  Tie1 mRNA: 146.88 Fold of mESC
  VE-cad mRNA: 1297.80 Fold of mESC
  Gpx4 mRNA: 1.35 Fold of untreated control
  Slc7a11 mRNA: 3.43 Fold of untreated control
[2]; [10]
  Ccl2 mRNA: 23.54 Fold of untreated control
  Icam-1 mRNA: 53.37 Fold of untreated control
  Vcam-1 mRNA: 0.085 Fold of untreated control
  eNos mRNA: 239.30 Fold of untreated control
  iNos mRNA: 3.20 Fold of untreated control
[2]; [11]
  Ccl2 mRNA: 2314.32 Fold of untreated control
  Icam-1 mRNA: 154.74 Fold of untreated control
  Vcam-1 mRNA: 0.39 Fold of untreated control
  eNos mRNA: 234.32 Fold of untreated control
  iNos mRNA: 3.41 Fold of untreated control
[2]; EC d4 + 0.05 µM 48 h, Fig 2D
  Atp7a mRNA: 1.81 Fold of control
  Atp7b mRNA: 0.54 Fold of control
  Ctr2 mRNA: 1.38 Fold of control
  Mdr1 mRNA: 105.13 Fold of control
  Mrp1 mRNA: 1.43 Fold of control
  Oct2 mRNA: 0.53 Fold of control
[2]; EC d4 + 0.05 µM 48 h, Fig 5C
  Brca1 mRNA: 0.25 Fold of mESC
  Chk1 mRNA: 0.34 Fold of mESC
  Rad51 mRNA: 0.27 Fold of mESC
[2]; EC d4 + 0.05 µM 48 h, Fig 6D
  Pgc1a mRNA: 24.33 Fold of untreated control
[2]; EC d4 + 0.05 µM 48 h, Fig 7B
  Cdkn1a mRNA: 4.89 Fold of untreated control
  Cdkn2a mRNA: 3.09 Fold of untreated control
  Glb1 mRNA: 1.54 Fold of untreated control
  Il6 mRNA: 1.91 Fold of untreated control
  Il8 mRNA: 25.17 Fold of untreated control
[2]; EC d4 + 0.05 µM 48 h, Fig 8C
  Cldn5 mRNA: 1.35 Fold of EC d4 or d6
  Ocln mRNA: 1.78 Fold of EC d4 or d6
  Tjp1 mRNA: 2.10 Fold of EC d4 or d6
[2]; EC d4 + 0.05 µM 48 h, Fig 8F
  Ldlr mRNA: 0.45 Fold of untreated control
[3]; 24 h treatment
  IC50: 170 nM
[3]; 72 h treatment
  IC50: 9 nM
[4]
  susceptibility (cell viability) of EC d4 as compared to both mESC and EC d6: significant higher
[5]
  VE-cadherin cell-cell junctions in EC d6 differentiated from treated EC d4: disturbed
[6]
  ZO1 containing tight junctions in EC d6 differentiated from treated EC d4: fragmented / interrupted ZO1 containing tight junctions
[7]
  mitochondrial membrane potential: significantly reduced
